Test results published in patent US8859574B2 (IRM LLC, priority 2008, dated 2014).

Biological target: T1, IGF-1R Ba/F3 (Homo sapiens, UniProt P08069)
T1 construct: fused on or other part: TEL- (or BCR-) IGF-1R in Ba/F3: the kinase part holds the site
Assay: Ba/F3 Cell Viability Inhibition Assay (IGF-1R Ba/F3)
Assay type: cell-based, murine
Conditions: Tel-TK transformed Ba/F3 cells, 48 hours, Britelite luminescence
Method in brief: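 A 48 h compound treatment at 37 °C (3750 cells/well) was followed by Britelite luminescence to measure viability. Cells were Ba/F3 pro-B cells, IL-3-independent via TEL-fused IGF-1R kinase transduction. A logistic fit gave IC50 as 50% viability relative to DMSO control.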

T1 sequence (P08069 999-1274 limits assumed): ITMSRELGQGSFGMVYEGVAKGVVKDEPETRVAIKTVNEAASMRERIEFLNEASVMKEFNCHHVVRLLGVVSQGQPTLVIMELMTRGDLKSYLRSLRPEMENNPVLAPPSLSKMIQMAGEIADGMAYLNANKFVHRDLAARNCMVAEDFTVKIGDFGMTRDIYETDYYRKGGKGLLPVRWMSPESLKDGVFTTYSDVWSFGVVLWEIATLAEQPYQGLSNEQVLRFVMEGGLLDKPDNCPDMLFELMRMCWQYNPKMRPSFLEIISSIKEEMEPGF

SMILES	IC50 [nM]
Cc1cc(Nc2nc(Nc3cc(C)c(C4CCN(C5CCC6(CC5)OCCO6)CC4)cc3F)ncc2Cl)n[nH]1 [Compound 283, N2-(4-(1-(1,4-dioxaspiro[4.5]decan-8-yl)piperidin-4-yl)-2-fluoro-5-methylphenyl)-5-chloro-N4-(5-methyl-1H-pyrazol-3-yl)pyrimidine-2,4-diamine]	16
COCCN1CCC(c2cc(C)c(Nc3ncc(Cl)c(Nc4cc(C)[nH]n4)n3)cc2C)CC1 [Compound 212, 5-chloro-N2-(4-(1-(2-methoxyethyl)piperidin-4-yl)-2,5-dimethylphenyl)-N4-(5-methyl-1H-pyrazol-3-yl)pyrimidine-2,4-diamine]	13
Cc1cc(C2CCNCC2)c(C)cc1Nc1ncc(Cl)c(Nc2ccc[nH]c2=O)n1 [Compound 158, 3-(5-chloro-2-(2,5-dimethyl-4-(piperidin-4-yl)phenylamino)pyrimidin-4-ylamino)pyridin-2(1H)-one]	62
Cc1cc(Nc2nc(Nc3cc(C)c(C4CCN(CCC(N)=O)CC4)cc3C)ncc2Cl)n[nH]1 [Compound 236, 3-(4-(4-(5-Chloro-4-(5-methyl-1H-pyrazol-3-ylamino)pyrimidin-2-ylamino)-2,5-dimethylphenyl)piperidin-1-yl)propanamide]	59
Cc1cc(Nc2nc(Nc3cc(C)c(C4CCN(CCC(=O)N5CCCC5)CC4)cc3F)ncc2Cl)n[nH]1 [Compound 242, 3-(4-(4-(5-chloro-4-(5-methyl-1H-pyrazol-3-ylamino)pyrimidin-2-ylamino)-5-fluoro-2-methylphenyl)piperidin-1-yl)-1-(pyrrolidin-1-yl)propan-1-one]	60
Cc1cc(C2CCN(CC(N)=O)CC2)c(C)cc1Nc1ncc(Cl)c(Nc2cc(C3CC3)[nH]n2)n1 [Compound 35, 2-(4-(4-(5-chloro-4-(5-cyclopropyl-1H-pyrazol-3-ylamino)pyrimidin-2-ylamino)-2,5-dimethylphenyl)piperidin-1-yl)acetamide]	11
CNC(=O)CN1CCC[C@@H](c2cc(C)c(Nc3ncc(Cl)c(Nc4cc(C)[nH]n4)n3)cc2C)C1 (single isomer, unassigned) [Compound 208]	10
Cc1cc(Nc2nc(Nc3cc(C)c(C4CCN(Cc5noc(C(C)(C)C)n5)CC4)cc3F)ncc2Cl)n[nH]1 [Compound 267, N2-(4-(1-((5-tert-butyl-1,2,4-oxadiazol-3-yl)methyl)piperidin-4-yl)-2-fluoro-5-methylphenyl)-5-chloro-N4-(5-methyl-1H-pyrazol-3-yl)pyrimidine-2,4-diamine]	77
Cc1cc(C2CCN(C(=O)CN(C)C)CC2)c(C)cc1Nc1ncc(Cl)c(Nc2cc(C(F)(F)F)[nH]n2)n1 [Compound 223, 1-(4-(4-(5-chloro-4-(5-(trifluoromethyl)-1H-pyrazol-3-ylamino)pyrimidin-2-ylamino)-2,5-dimethylphenyl)piperidin-1-yl)-2-(dimethylamino)ethanone]	36
Cc1cc(Nc2nc(Nc3cc(C)c(C4CCN(Cc5noc(C(C)(C)C)n5)CC4)cc3C)ncc2Cl)n[nH]1 [Compound 266, N2-(4-(1-((5-tert-butyl-1,2,4-oxadiazol-3-yl)methyl)piperidin-4-yl)-2,5-dimethylphenyl)-5-chloro-N4-(5-methyl-1H-pyrazol-3-yl)pyrimidine-2,4-diamine]	25
Cc1cc(Nc2nc(Nc3cc(C)c(C4CCN(CC5(C#N)CC5)CC4)cc3C)ncc2Cl)n[nH]1 [Compound 198, 1-((4-(4-(5-chloro-4-(5-methyl-1H-pyrazol-3-ylamino)pyrimidin-2-ylamino)-2,5-dimethylphenyl)piperidin-1-yl)methyl)cyclopropanecarbonitrile]	22
Cc1cc(Nc2nc(Nc3cc(C)c(C4CCN(CC5CC5(F)F)CC4)cc3C)ncc2Cl)n[nH]1 (stereo not drawn) [Compound 249, 5-chloro-N2-(4-(1-((2,2-difluorocyclopropyl)methyl)piperidin-4-yl)-2,5-dimethylphenyl)-N4-(5-methyl-1H-pyrazol-3-yl)pyrimidine-2,4-diamine]	32
Cc1cc(Nc2nc(Nc3cc(C)c(C4CCN(Cc5noc(C(C)C)n5)CC4)cc3F)ncc2Cl)n[nH]1 [Compound 285, 5-chloro-N2-(2-fluoro-4-(1-((5-isopropyl-1,2,4-oxadiazol-3-yl)methyl)piperidin-4-yl)-5-methylphenyl)-N4-(5-methyl-1H-pyrazol-3-yl)pyrimidine-2,4-diamine]	68
Cc1cc(Nc2nc(Nc3cc(C)c(C4CCN(C5CCOCC5)CC4)cc3C)ncc2Cl)n[nH]1 [Compound 252, 5-chloro-N2-(2,5-dimethyl-4-(1-(tetrahydro-2H-pyran-4-yl)piperidin-4-yl)phenyl)-N4-(5-methyl-1H-pyrazol-3-yl)pyrimidine-2,4-diamine]	14
CNC(C)(C)C(=O)N1CCC(c2cc(C)c(Nc3ncc(Cl)c(Nc4cc(C)[nH]n4)n3)cc2Cl)CC1 [Compound 88, 1-(4-(2-chloro-4-(5-chloro-4-(5-methyl-1H-pyrazol-3-ylamino)pyrimidin-2-ylamino)-5-methylphenyl)piperidin-1-yl)-2-methyl-2-(methylamino)propan-1-one]	7
Cc1cc(Nc2nc(Nc3cc(C)c(C4CCNCC4)cc3C)ncc2Cl)n[nH]1 [Compound 256, 5-chloro-N2-(2,5-dimethyl-4-(piperidin-4-yl)phenyl)-N4-(5-methyl-1H-pyrazol-3-yl)pyrimidine-2,4-diamine]	44
Cc1cc(Nc2nc(Nc3cc(C)c(C4CCCCN4)cc3C)ncc2Cl)n[nH]1 (stereo not drawn) [Compound 14, 5-chloro-N2-(2,5-dimethyl-4-(piperidin-2-yl)phenyl)-N4-(5-methyl-1H-pyrazol-3-yl)pyrimidine-2,4-diamine]	16
Cc1cc(Nc2nc(Nc3cc(Cl)c(C4CCN(C5CCS(=O)(=O)C5)CC4)cc3C)ncc2Cl)n[nH]1 (stereo not drawn) [Compound 144, 5-chloro-N^2-(2-methyl-5-chloro-4-(1-(tetrahydro-1,1-dioxido-3-thienyl)piperidin-4-yl)phenyl)-N^4-(5-methyl-1H-pyrazol-3-yl)pyrimidine-2,4-diamine]	7
Cc1cc(Nc2ncc(Cl)c(N[C@H]3CCCCNC3=O)n2)c(F)cc1C1CCN(C)CC1 (single isomer, unassigned) [Compound 10]	869
Cc1cc(Nc2nc(Nc3cc(C(F)(F)F)c(C4CCN(C)CC4)cc3F)ncc2Cl)n[nH]1 [Compound 216, 5-chloro-N2-(2-fluoro-4-(1-methylpiperidin-4-yl)-5-(trifluoromethyl)phenyl)-N4-(5-methyl-1H-pyrazol-3-yl)pyrimidine-2,4-diamine]	47
Cc1cc(Nc2nc(Nc3cc(C)c(C4CCN(C(=O)CN(C)C)CC4)cc3C)ncc2Cl)n[nH]1 [Compound 75, 1-(4-(4-(5-chloro-4-(5-methyl-1H-pyrazol-3-ylamino)pyrimidin-2-ylamino)-2,5-dimethylphenyl)piperidin-1-yl)-2-(dimethylamino)ethanone]	11
Cc1noc(CN2CCC(c3cc(F)c(Nc4ncc(Cl)c(Nc5cc(C)[nH]n5)n4)cc3C)CC2)n1 [Compound 293, 5-chloro-N2-(2-fluoro-5-methyl-4-(1-((3-methyl-1,2,4-oxadiazol-5-yl)methyl)piperidin-4-yl)phenyl)-N4-(5-methyl-1H-pyrazol-3-yl)pyrimidine-2,4-diamine]	26
Cc1cc(Nc2nc(Nc3cc(C)c(C4CCN(CCCS(=O)(=O)N5CCC5)CC4)cc3F)ncc2Cl)n[nH]1 [Compound 243, N2-(4-(1-(3-(azetidin-1-ylsulfonyl)propyl)piperidin-4-yl)-2-fluoro-5-methylphenyl)-5-chloro-N4-(5-methyl-1H-pyrazol-3-yl)pyrimidine-2,4-diamine]	76
Cc1cc(Nc2nc(Nc3cc(C)c(C4CCN(C(=O)C5(O)CC5)CC4)cc3F)ncc2Cl)n[nH]1 [Compound 192, (4-(4-(5-chloro-4-(5-methyl-1H-pyrazol-3-ylamino)pyrimidin-2-ylamino)-5-fluoro-2-methylphenyl)piperidin-1-yl)(1-hydroxycyclopropyl)methanone]	21
Cc1cc(C2CCN(C(=O)CN(C)C)CC2)c(C)cc1Nc1ncc(Cl)c(Nc2cc(C3CC3)[nH]n2)n1 [Compound 186, 1-(4-(4-(5-chloro-4-(5-cyclopropyl-1H-pyrazol-3-ylamino)pyrimidin-2-ylamino)-2,5-dimethylphenyl)piperidin-1-yl)-2-(dimethylamino)ethanone]	12
Cc1cc(Nc2nc(Nc3cc(C)c(C4CCN(C(=O)C5(N(C)C)CC5)CC4)cc3F)ncc2Cl)n[nH]1 [Compound 94, (4-(4-(5-chloro-4-(5-methyl-1H-pyrazol-3-ylamino)pyrimidin-2-ylamino)-5-fluoro-2-methylphenyl)piperidin-1-yl)(1-(dimethylamino)cyclopropyl)methanone]	13
Cc1cc(Nc2nc(Nc3cc(C)c(C4CCN([C@@H](C)C(N)=O)CC4)cc3F)ncc2Cl)n[nH]1 [Compound 163]	56
Cc1cc(Nc2nc(Nc3cc(C)c(C4CCN(C)CC4)cc3OC(C)C)ncc2C)n[nH]1 [Compound 5, N2-(2-isopropoxy-5-methyl-4-(1-methylpiperidin-4-yl)phenyl)-5-methyl-N4-(5-methyl-1H-pyrazol-3-yl)pyrimidine-2,4-diamine]	805
Cc1cc(Nc2nc(Nc3cc(C)c(C4CCN(C(C)C)CC4)cc3C)ncc2Cl)n[nH]1 [Compound 12, 5-chloro-N2-(4-(1-isopropylpiperidin-4-yl)-2,5-dimethylphenyl)-N4-(5-methyl-1H-pyrazol-3-yl)pyrimidine-2,4-diamine]	10
Cc1cc(Nc2nc(Nc3cc(C)c(C4CCN(C(=O)[C@@H]5CCCN5)CC4)cc3F)ncc2Cl)n[nH]1 [Compound 116, (S)-(4-(4-(5-chloro-4-(5-methyl-1H-pyrazol-3-ylamino)pyrimidin-2-ylamino)-5-fluoro-2-methylphenyl)piperidin-1-yl)(pyrrolidin-2-yl)methanone]	137
